Results published in US10640544B2, “Antibody-coupled cyclic peptide tyrosine tyrosine compounds as modulators of neuropeptide Y receptors” (JANSSEN PHARMACEUTICA NV, priority 2016, dated 2020).

Tests used:
[1] = OGTT in DIO mice after 8 days of treatment (blood glucose, insulin); format: in vivo, mouse; settings: 8 days treatment, 0.3 nmol/kg s.c. every day
Description: (§1) Compound 1 was evaluated for its ability to reduce foot intake and body weight and improve glucose homeostasis on repeat dosing in male DIO C57Bl/6 mice over a period of 8 days. Male DIO C57BL/6N mice (20 weeks of age, 14 weeks on high fat diet) were obtained from Taconic Laboratory. […] Animals were acclimated to the facility for at least one week prior to the start of the experiment.
(§2) The day prior to dosing, mice were grouped based on individual body weights. At 3:00-4:[…] for each of the next 8 days, animals and food intake were weighed. […] After 8 days, mice are fasted for 5 hours and then given a 2 g/kg bolus of glucose orally at t=0. At t=0, 30, 60, 90, and 120 minutes post glucose challenge blood glucose is measured and at t=0, 30, and 90 minutes blood in drawn to measure plasma insulin. […] All data are presented as the mean±SEM (FIG. 7, FIG. 8, and Tables 8-11).

[2] = Single dose effect on food intake and body weight in Sprague-Dawley rats; format: in vivo, rat; set-up: body weight change: unit not given here; settings: single dose 0.3 nmol/kg s.c.
Description: Compound 1 was evaluated for its ability to reduce foot intake and body weight in Sprague-Dawley after a single dose. The animals were obtained from Charles River Labs (Wilmington, Mass.) at 200-225 g body weight and used within one week of delivery. They were housed one per cage on alpha dry bedding and a plastic tube for enrichment in a temperature-controlled room with 12-hour light/dark cycle. […] Animal weights were taken and recorded for each rat prior to dosing.
Body weights and food intake were measured 1, 2 and 3 days after dosing and the percentages of weight loss and reduction in food intake were calculated. […] All data are presented as the mean±SEM (Tables 18-20).

[3] = Weight loss in diet-induced obese mice: chronic dosing (body weight, fed blood glucose); format: in vivo, mouse; settings: DIO mice, after 8 days of treatment; 0.3 nmol/kg s.c. every day
Description: as §1, §2

With “Dulaglutide: long-acting GLP-1 receptor agonist, comparator” the “blood glucose Delta AUC (OGTT)” value [1] was 6668 ± 1846 mg/dl/120 min, the “blood glucose Total AUC (OGTT)” value [1] was 15758 ± 1054 mg/dl/120 min and the “blood glucose during OGTT” value ([1]; 0 min after glucose challenge) was 76 ± 9 mg/dL. The “insulin during OGTT” value ([1]; 0 min after glucose challenge) was 0.6 ± 0.1 ng/mL, the “blood glucose during OGTT” value ([1]; 30 min after glucose challenge) was 151 ± 14 mg/dL and the “insulin during OGTT” value ([1]; 30 min after glucose challenge) was 1.7 ± 0.2 ng/mL. For the same substance, the “blood glucose during OGTT” value ([1]; 60 min after glucose challenge) was 174 ± 17 mg/dL, the “blood glucose during OGTT” value ([1]; 90 min after glucose challenge) was 104 ± 10 mg/dL and the “insulin during OGTT” value ([1]; 90 min after glucose challenge) was 0.7 ± 0.2 ng/mL. For the same substance, the “blood glucose during OGTT” value ([1]; 120 min after glucose challenge) was 119 ± 9 mg/dL, the “Total Food Consumption over three days” value [2] was 87.4 ± 2.0 and the body weight change ([2]; Day 0) was 0.0 ± 0.0. The daily food intake ([2]; Day 0) was 26.6 ± 0.8, the absolute body weight ([2]; Day 0, in g (unit assumed)) was 270.3 ± 3.0 and the body weight change ([2]; Day 1) was 10.6 ± 1.6. For the same substance, the daily food intake ([2]; Day 1) was 27.3 ± 1.2, the absolute body weight ([2]; Day 1, in g (unit assumed)) was 280.8 ± 4.2 and the body weight change ([2]; Day 2) was 22.5 ± 0.8. It also gave a daily food intake ([2]; Day 2) of 30.0 ± 0.7, an absolute body weight ([2]; Day 2, in g (unit assumed)) of 292.47 ± 3.6 and a body weight change ([2]; Day 3) of 28.7 ± 0.6. For the same substance, the daily food intake ([2]; Day 3) was 30.1 ± 0.7, the absolute body weight ([2]; Day 3, in g (unit assumed)) was 299.0 ± 3.3 and the body weight change ([2]; Day −1 (relative to Day 0)) was −6.3 ± 0.8. For the same substance, the absolute body weight ([2]; Day −1, in g (unit assumed)) was 264.0 ± 3.1 and the “fed Blood Glucose” value [3] was 114 ± 13 mg/dL.
